Laboratory results published in patent EP4796557A1, “POLYPEPTIDE, BIOACTIVE CONJUGATE, AND PREPARATION METHOD THEREFOR AND USE THEREOF” (priority 2023, dated 2025).
Square brackets hold non-standard residues; d marks the D form. Peptide text beside a SMILES is read from it. Cit = NC(=O)NCCC[C@H](N)C(=O)O

Experiments:
MMP2 = target: T1, MMP2 (Homo sapiens, UniProt P08253); assay: Enzymolysis assay of polypeptides by MMP2 (RP-HPLC); type: biochemical; details: test polypeptide 100 µmol, activated MMP2, 37°C, 4 h
T1 sequence (P08253 110-660): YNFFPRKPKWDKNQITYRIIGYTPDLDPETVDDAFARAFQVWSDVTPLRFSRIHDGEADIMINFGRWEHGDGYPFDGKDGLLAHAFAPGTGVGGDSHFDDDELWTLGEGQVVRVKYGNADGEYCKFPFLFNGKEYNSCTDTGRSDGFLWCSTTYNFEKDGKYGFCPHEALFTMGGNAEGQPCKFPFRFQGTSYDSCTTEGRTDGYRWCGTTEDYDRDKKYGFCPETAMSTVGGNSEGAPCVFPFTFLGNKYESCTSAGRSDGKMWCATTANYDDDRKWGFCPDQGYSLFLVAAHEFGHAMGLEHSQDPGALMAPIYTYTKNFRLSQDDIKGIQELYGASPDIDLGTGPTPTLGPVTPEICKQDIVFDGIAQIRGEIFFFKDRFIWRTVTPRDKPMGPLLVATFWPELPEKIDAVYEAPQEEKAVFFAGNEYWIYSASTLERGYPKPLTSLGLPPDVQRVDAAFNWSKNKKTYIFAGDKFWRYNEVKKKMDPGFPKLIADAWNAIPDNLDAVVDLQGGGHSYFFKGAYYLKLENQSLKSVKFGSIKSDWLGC
Method: (§1) First, MMP2 or MMP9 enzyme solution having a final concentration of 200 µg/mL was mixed with 4 mM APMA at a ratio of 1:1, placed in a 37°C water bath and incubated for 24 h to activate the MMP2 or MMP9 enzyme solution. Subsequently, the test polypeptide having a final concentration of 100 µmol was incubated with the activated MMP2 or MMP9 enzyme solution in a 37°C water bath for 4 h. After the reaction was complete, an equal volume of acetonitrile solution was added thereto, followed by RP-HPLC analysis.
(§2) The enzymolysis efficiency of the polypeptide was calculated based on the peak areas of the target peak before and after enzymolysis. The formula is as follows: Enzymolysis efficiency = […] [formula]

MMP9 = MMP9 (Homo sapiens, UniProt P14780); assay: Enzymolysis assay of polypeptides by MMP9 (RP-HPLC); type: biochemical; details: polypeptide 100 µmol with activated MMP9, 37°C, 4 h, RP-HPLC peak areas
Method: as §1, §2

Chain of MMP9 (P14780 107-707 limits assumed, species assumed): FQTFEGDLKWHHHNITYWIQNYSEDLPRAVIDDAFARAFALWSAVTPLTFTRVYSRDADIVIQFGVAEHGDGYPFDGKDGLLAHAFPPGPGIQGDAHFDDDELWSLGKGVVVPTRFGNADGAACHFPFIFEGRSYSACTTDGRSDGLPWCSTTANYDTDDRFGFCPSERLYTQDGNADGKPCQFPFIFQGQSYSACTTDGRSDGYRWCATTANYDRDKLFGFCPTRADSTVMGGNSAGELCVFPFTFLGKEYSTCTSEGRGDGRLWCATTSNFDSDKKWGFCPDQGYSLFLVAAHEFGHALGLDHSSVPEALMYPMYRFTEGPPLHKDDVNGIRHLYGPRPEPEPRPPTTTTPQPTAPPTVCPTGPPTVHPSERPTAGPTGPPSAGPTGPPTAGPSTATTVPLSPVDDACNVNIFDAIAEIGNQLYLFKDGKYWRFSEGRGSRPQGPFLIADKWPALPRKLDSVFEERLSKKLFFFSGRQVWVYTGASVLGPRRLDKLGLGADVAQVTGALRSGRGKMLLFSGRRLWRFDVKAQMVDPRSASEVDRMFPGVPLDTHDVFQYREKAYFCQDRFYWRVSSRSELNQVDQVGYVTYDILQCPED

CC(=O)N[C@@H](Cc1c[nH]cn1)C(=O)N[C@H](C(=O)N[C@@H](CC(C)C)C(=O)N[C@@H](CC(N)=O)C(=O)N[C@@H](CC(C)C)C(=O)N[C@H](C(=O)N[C@@H](CCCNC(N)=O)C(N)=O)C(C)C)C(C)C [Compound 1-P2] (Ac-HVLNLV[Cit]-NH2)
Enzymolysis efficiency (%) (MMP2): 14.28%

CC(=O)N[C@H](C(=O)N1CCC[C@H]1C(=O)N[C@@H](CC(C)C)C(=O)N[C@@H](CO)C(=O)N[C@@H](CC(C)C)C(=O)N[C@H](C(=O)N[C@@H](CCCNC(N)=O)C(N)=O)C(C)C)C(C)C [Compound 1-P3] (Ac-VPLSLV[Cit]-NH2)
Enzymolysis efficiency (%) (MMP2): 49.85%
Enzymolysis efficiency (%) (MMP9): 51.44%

CC[C@H](C)[C@H](NC(C)=O)C(=O)N1CCC[C@H]1C(=O)N[C@H](C(=O)N[C@@H](CO)C(=O)N[C@@H](CC(C)C)C(=O)N[C@H](C(=O)N[C@@H](CCCNC(N)=O)C(N)=O)C(C)C)C(C)C [Compound 1-P4] (Ac-IPVSLV[Cit]-NH2)
Enzymolysis efficiency (%) (MMP2): 21.87%
Enzymolysis efficiency (%) (MMP9): 18.84%

CC(=O)NCC(=O)N1CCC[C@H]1C(=O)N[C@@H](CC(C)C)C(=O)N[C@@H](CO)C(=O)N[C@@H](CC(C)C)C(=O)N[C@H](C(=O)N[C@@H](CCCNC(N)=O)C(N)=O)C(C)C [Compound 1-P5] (Ac-GPLSLV[Cit]-NH2)
Enzymolysis efficiency (%) (MMP2): 52.03%
Enzymolysis efficiency (%) (MMP9): 54.80%

CC(=O)NCC(=O)N1CCC[C@H]1C(=O)N[C@@H](C)C(=O)N[C@@H](CO)C(=O)N[C@@H](CC(C)C)C(=O)N[C@H](C(=O)N[C@@H](CCCNC(N)=O)C(N)=O)C(C)C [Compound 1-P6] (Ac-GPASLV[Cit]-NH2)
Enzymolysis efficiency (%) (MMP2): 86.72%
Enzymolysis efficiency (%) (MMP9): 28.79%

CC(=O)NCC(=O)N1CCC[C@H]1C(=O)N[C@@H](C)C(=O)NCC(=O)N[C@@H](CC(C)C)C(=O)N[C@H](C(=O)N[C@@H](CCCNC(N)=O)C(N)=O)C(C)C [Compound 1-P7] (Ac-GPAGLV[Cit]-NH2)
Enzymolysis efficiency (%) (MMP2): 90.29%
Enzymolysis efficiency (%) (MMP9): 25.55%

CC(=O)NCC(=O)N1CCC[C@H]1C(=O)N[C@@H](CCC(N)=O)C(=O)NCC(=O)N[C@@H](CC(C)C)C(=O)N[C@H](C(=O)N[C@@H](CCCNC(N)=O)C(N)=O)C(C)C [Compound 1-P8] (Ac-GPQGLV[Cit]-NH2)
Enzymolysis efficiency (%) (MMP2): 54.71%
Enzymolysis efficiency (%) (MMP9): 29.30%

CC(=O)NCC(=O)N1CCC[C@H]1C(=O)N[C@@H](CC(C)C)C(=O)NCC(=O)N[C@@H](CC(C)C)C(=O)N[C@H](C(=O)N[C@@H](CCCNC(N)=O)C(N)=O)C(C)C [Compound 1-P9] (Ac-GPLGLV[Cit]-NH2)
Enzymolysis efficiency (%) (MMP2): 81.75%
Enzymolysis efficiency (%) (MMP9): 68.34%

CC(=O)NCC(=O)N1CCC[C@H]1C(=O)N[C@@H](CO)C(=O)NCC(=O)N[C@@H](CC(C)C)C(=O)N[C@H](C(=O)N[C@@H](CCCNC(N)=O)C(N)=O)C(C)C [Compound 1-P10] (Ac-GPSGLV[Cit]-NH2)
Enzymolysis efficiency (%) (MMP2): 75.95%
Enzymolysis efficiency (%) (MMP9): 27.93%

CC(=O)NCC(=O)N1CCC[C@H]1C(=O)N[C@@H](CCCNC(=N)N)C(=O)NCC(=O)N[C@@H](CC(C)C)C(=O)N[C@H](C(=O)N[C@@H](CCCNC(N)=O)C(N)=O)C(C)C [Compound 1-P11] (Ac-GPRGLV[Cit]-NH2)
Enzymolysis efficiency (%) (MMP2): 86.82%
Enzymolysis efficiency (%) (MMP9): 81.51%

CC(=O)NCC(=O)N1CCC[C@H]1C(=O)N[C@@H](C)C(=O)N[C@@H](C)C(=O)N[C@@H](CC(C)C)C(=O)N[C@H](C(=O)N[C@@H](CCCNC(N)=O)C(N)=O)C(C)C [Compound 1-P12] (Ac-GPAALV[Cit]-NH2)
Enzymolysis efficiency (%) (MMP2): 38.94%
Enzymolysis efficiency (%) (MMP9): 20.93%

CC(=O)NCC(=O)N1CCC[C@H]1C(=O)N[C@@H](CO)C(=O)N[C@@H](C)C(=O)N[C@@H](CC(C)C)C(=O)N[C@H](C(=O)N[C@@H](CCCNC(N)=O)C(N)=O)C(C)C [Compound 1-P13] (Ac-GPSALV[Cit]-NH2)
Enzymolysis efficiency (%) (MMP2): 90.13%
Enzymolysis efficiency (%) (MMP9): 45.08%

CC(=O)N1CCC[C@H]1C(=O)N[C@@H](CCCNC(=N)N)C(=O)NCC(=O)N[C@@H](CC(C)C)C(=O)N[C@H](C(=O)N[C@@H](CCCNC(N)=O)C(N)=O)C(C)C [Compound 2-P1, PRGLVCit] (Ac-PRGLV[Cit]-NH2)
Enzymolysis efficiency (%) (MMP2): 80.31%
Enzymolysis efficiency (%) (MMP9): 93.67%

CC(=O)N1CCC[C@H]1C(=O)N[C@@H](CCCNC(=N)N)C(=O)N[C@@H](CO)C(=O)N[C@@H](CC(C)C)C(=O)N[C@H](C(=O)N[C@@H](CCCNC(N)=O)C(N)=O)C(C)C [Compound 2-P2] (Ac-PRSLV[Cit]-NH2)
Enzymolysis efficiency (%) (MMP2): 53.20%
Enzymolysis efficiency (%) (MMP9): 79.34%

CC(=O)N1CCC[C@H]1C(=O)N[C@@H](CCCNC(=N)N)C(=O)N[C@@H](CC(N)=O)C(=O)N[C@@H](CC(C)C)C(=O)N[C@H](C(=O)N[C@@H](CCCNC(N)=O)C(N)=O)C(C)C [Compound 2-P3] (Ac-PRNLV[Cit]-NH2)
Enzymolysis efficiency (%) (MMP2): 66.36%
Enzymolysis efficiency (%) (MMP9): 97.39%

CC(=O)N1CCC[C@H]1C(=O)N[C@@H](CCCNC(=N)N)C(=O)N1CCC[C@H]1C(=O)N[C@@H](CC(C)C)C(=O)N[C@H](C(=O)N[C@@H](CCCNC(N)=O)C(N)=O)C(C)C [Compound 2-P4] (Ac-PRPLV[Cit]-NH2)
Enzymolysis efficiency (%) (MMP2): 46.14%
Enzymolysis efficiency (%) (MMP9): 61.01%

CC(=O)N1CCC[C@H]1C(=O)N[C@@H](CCCNC(N)=O)C(=O)NCC(=O)N[C@@H](CC(C)C)C(=O)N[C@H](C(=O)N[C@@H](CCCNC(N)=O)C(N)=O)C(C)C [Compound 2-P5] (Ac-P[Cit]GLV[Cit]-NH2)
Enzymolysis efficiency (%) (MMP2): 61.03%
Enzymolysis efficiency (%) (MMP9): 68.91%

CC(=O)N1CCC[C@H]1C(=O)N[C@@H](CCCNC(N)=O)C(=O)N1CCC[C@H]1C(=O)N[C@@H](CC(C)C)C(=O)N[C@H](C(=O)N[C@@H](CCCNC(N)=O)C(N)=O)C(C)C [Compound 2-P6] (Ac-P[Cit]PLV[Cit]-NH2)
Enzymolysis efficiency (%) (MMP2): 36.21%
Enzymolysis efficiency (%) (MMP9): 36.08%

CC(=O)NCC(=O)N1CCC[C@H]1C(=O)N[C@@H](CCCNC(=N)N)C(=O)N[C@@H](CO)C(=O)N[C@@H](CC(C)C)C(=O)N[C@H](C(=O)N[C@@H](CCCNC(N)=O)C(N)=O)C(C)C [Compound 2-P7] (Ac-GPRSLV[Cit]-NH2)
Enzymolysis efficiency (%) (MMP2): 62.64%
Enzymolysis efficiency (%) (MMP9): 77.95%

CC(=O)NCC(=O)N1CCC[C@H]1C(=O)N[C@@H](CCCNC(=N)N)C(=O)N1CCC[C@H]1C(=O)N[C@@H](CC(C)C)C(=O)N[C@H](C(=O)N[C@@H](CCCNC(N)=O)C(N)=O)C(C)C [Compound 2-P8] (Ac-GPRPLV[Cit]-NH2)
Enzymolysis efficiency (%) (MMP2): 55.07%
Enzymolysis efficiency (%) (MMP9): 62.58%

CC(=O)NCC(=O)N1CCC[C@H]1C(=O)N[C@@H](CCCNC(=N)N)C(=O)N[C@@H](CC(N)=O)C(=O)N[C@@H](CC(C)C)C(=O)N[C@H](C(=O)N[C@@H](CCCNC(N)=O)C(N)=O)C(C)C [Compound 2-P9] (Ac-GPRNLV[Cit]-NH2)
Enzymolysis efficiency (%) (MMP2): 77.00%
Enzymolysis efficiency (%) (MMP9): 100.00%

CC(=O)NCC(=O)N1CCC[C@H]1C(=O)N[C@@H](CCCNC(N)=O)C(=O)NCC(=O)N[C@@H](CC(C)C)C(=O)N[C@H](C(=O)N[C@@H](CCCNC(N)=O)C(N)=O)C(C)C [Compound 2-P10] (Ac-GP[Cit]GLV[Cit]-NH2)
Enzymolysis efficiency (%) (MMP2): 71.24%
Enzymolysis efficiency (%) (MMP9): 80.34%

CC(=O)NCC(=O)N1CCC[C@H]1C(=O)N[C@@H](CCCNC(N)=O)C(=O)N1CCC[C@H]1C(=O)N[C@@H](CC(C)C)C(=O)N[C@H](C(=O)N[C@@H](CCCNC(N)=O)C(N)=O)C(C)C [Compound 2-P11] (Ac-GP[Cit]PLV[Cit]-NH2)
Enzymolysis efficiency (%) (MMP2): 40.95%
Enzymolysis efficiency (%) (MMP9): 45.82%

CC(=O)N[C@@H](Cc1c[nH]cn1)C(=O)N1CCC[C@H]1C(=O)N[C@@H](CCCNC(=N)N)C(=O)NCC(=O)N[C@@H](CC(C)C)C(=O)N[C@H](C(=O)N[C@@H](CCCNC(N)=O)C(N)=O)C(C)C [Compound 2-P12] (Ac-HPRGLV[Cit]-NH2)
Enzymolysis efficiency (%) (MMP2): 77.58%
Enzymolysis efficiency (%) (MMP9): 95.73%

CC(=O)N[C@@H](Cc1c[nH]cn1)C(=O)N1CCC[C@H]1C(=O)N[C@@H](CCCNC(=N)N)C(=O)N[C@@H](CO)C(=O)N[C@@H](CC(C)C)C(=O)N[C@H](C(=O)N[C@@H](CCCNC(N)=O)C(N)=O)C(C)C [Compound 2-P13] (Ac-HPRSLV[Cit]-NH2)
Enzymolysis efficiency (%) (MMP2): 57.42%
Enzymolysis efficiency (%) (MMP9): 81.06%

CC(=O)N[C@@H](Cc1c[nH]cn1)C(=O)N1CCC[C@H]1C(=O)N[C@@H](CCCNC(=N)N)C(=O)N1CCC[C@H]1C(=O)N[C@@H](CC(C)C)C(=O)N[C@H](C(=O)N[C@@H](CCCNC(N)=O)C(N)=O)C(C)C [Compound 2-P14] (Ac-HPRPLV[Cit]-NH2)
Enzymolysis efficiency (%) (MMP2): 54.65%
Enzymolysis efficiency (%) (MMP9): 58.33%
